Earlier results, collected in patent US20080085243A1, “MOLECULAR MARKERS FOR D[…] RESPONSIVENESS” (SIGMA-ALDRICH COMPANY, priority 2006, published 2008).

Test system: late stage non-small cell lung cancer (NSCLC)

For `CC(=O)O[C@H]1C(=O)[C@@]2(C)[C@H]([C@H](OC(=O)c3ccccc3)[C@]3(O)C[C@H](OC(=O)[C@H](O)[C@@H](NC(=O)c4ccccc4)c4ccccc4)C(C)=C1C3(C)C)[C@]1(OC(C)=O)CO[C@@H]1C[C@@H]2O` [paclitaxel], the “patients who respond therapeutically” value is listed as “about 20%”.
